Laboratory results as given in US20100075907A1, “NEUROMEDIN U RECEPTOR AGONISTS AND USES THEREOF” (priority 2006, published 2010).
Values belong to the compound of their own block, whether it stands above or below them. Starred links: 1 amine or outer side, 2 acyl side, 3 side chain; linkers in the order of their positions; H or OH if unused. Residues, ends and D or L forms follow the SMILES beside them. No end group written: not given here. *: point of attachment. X1 = CC(C)CCC[C@@H](C)[C@H]1CC[C@H]2[C@@H]3CC=C4C[C@@H](OC(=O)C*)CC[C@]4(C)[C@H]3CC[C@]12C; X2 = CCN1C(=O)CC(SC[C@H](NC(C)=O)C(=O)NCCCOCCOCCOCCCN*)C1=O; Succinimide(1-Et,3-yl) = CCN1C(=O)CC(*)C1=O; Suc = O=C(CCC(=O)[*:2])[*:1]

Legend:
mouse NMUR1-ATG = biological target: T1, mouse NMUR1-ATG (Mus musculus, UniProt O55040); assay: FLIPR calcium mobilization assay, mouse NMUR1-ATG; format: cell-based; parameters: expressed in transfected cells; host or cells: FLP-In CHO or HEK-293 FLP-In cells (pcDNA5); conditions: for % Activity: maximum response at 1 μM compared to hNMU-25
T1 sequence (O55040 1-428): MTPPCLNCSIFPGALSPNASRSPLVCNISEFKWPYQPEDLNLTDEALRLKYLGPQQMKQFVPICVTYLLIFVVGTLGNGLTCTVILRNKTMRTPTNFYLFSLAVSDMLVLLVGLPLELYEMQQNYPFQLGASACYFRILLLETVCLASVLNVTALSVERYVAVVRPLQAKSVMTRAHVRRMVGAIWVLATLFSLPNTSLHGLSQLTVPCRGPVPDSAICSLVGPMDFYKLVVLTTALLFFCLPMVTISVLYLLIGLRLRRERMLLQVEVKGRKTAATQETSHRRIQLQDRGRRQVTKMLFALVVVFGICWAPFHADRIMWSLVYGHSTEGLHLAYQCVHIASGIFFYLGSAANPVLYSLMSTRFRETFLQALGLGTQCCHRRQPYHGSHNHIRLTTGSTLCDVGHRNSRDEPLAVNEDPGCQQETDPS
From the text: (§1) Human, mouse or rat cDNAs encoding NMUR1 or NMUR2 (as described in Howard et al. Nature 406: 70-74 (2000) were subcloned in pcDNA5 (Invitrogen) and transfected into FLP-In CHO cells and HEK-293 FLP-In cells purchased from Invitrogen (Carlsbad, Calif.) using lipofectamine (Invitrogen). The Flp-In system allows integration and expression of a particular gene of interest at a specific genomic location utilizing the Flp recombinase from yeast. The transfected cells were selected by growth in medium containing 200 μg/mL hygromycin (Invitrogen). Populations were frozen at early passage numbers, and these stocks were used for further studies. Stable clones that expressed the mRNAs were identified functionally by FLIPR as well as by RT-PCR. […] Two different rodent NMUR1 cell lines were thus generated: one with the codon as predicted from the genomic databases and another cell line with an engineered methionine (ATG) as the start codon. Additionally, stable cell lines expressing the human receptors were generated in HEK-293/aeq17 cells which stably express the aequorin gene under the CMV promoter. The human NMUR2 cDNA was cloned into pcDNA3.1 and human NMUR1 was subcloned into pIRES-puro (Clontech, Mountain View, Calif.), after transfection cells were selected in media containing G418 and either hygromycin (NMUR2) or puromycin (NMUR1).
(§2) The NMU receptors signal primarily through Gαq/11 proteins; therefore calcium mobilization assays can be utilized for functional activity.
(§3) Stable cell lines expressing human and or rodent NMUR1 or human NMUR2 receptors were plated at a density of 12,000 cells per well overnight on poly-lysine coated 384-well black-walled plates. The following day, the media was removed from the plates and the cells were subsequently loaded with Fluo-3 (Molecular Probes), a calcium sensitive dye, diluted in FLIPR buffer (1× Hank's buffered saline containing 20 mM HEPES, 0.1% BSA, 2.5 mM probenecid (Sigma) and 1.6 mM TR40). All reagents are from Invitrogen unless otherwise noted. Peptide stocks were resuspended in DMSO at a stock concentration of 2 mM and diluted in FLIPR buffer on the day of the experiment to a 4 μM working stock solution.
(§4) After a 90 minute incubation at room-temperature, cell plates were loaded onto a FLIPR (Molecular Devices) to monitor cellular fluorescence (excitation=488 nm; emission=540 nm) before and after compound/peptide addition. Eight to twelve point dose responses were tested on NMUR-expressing cell lines using FLIPR with 1 μM peptide as the highest dose. The response after peptide addition was taken as the maximum fluorescence units minus the fluorescence immediately prior to stimulation for each well. EC50 values were calculated using GraphPad Prism (San Diego, Calif.) software.
(§5) In vitro responses of Neuromedin U receptor agonists (NMU1 to NMU25) in the FLIPR assay for human (Table 3), mouse (Table 4) and rat (Table 5) NMUR1 and NMUR2. EC50s are reported in nM values. Percent activity refers to the maximum response at 1 μM compared to the hNMU-25 response at the same concentration. NT=not tested.

diet-induced obese mice = assay: Feeding study in diet-induced obese mice (food intake, body weight); format: in vivo; conditions: for % Food intake (FI) reductions Day 1: Day 1, based on vehicle responses
From the text: NMUR1 knockout (Nmur1−/−) mice were generated using standard homologous recombination techniques. Nmur1 mice were subsequently transferred to Taconic Farms where they were either maintained on a 75% C57BL/6×25% 129S6/SvEv mixed genetic background or backcrossed six generations to C57BL/6. NMUR2 knockout (Nmur2−/−) mice were licensed from Deltagen Inc., San Mateo, Calif. and subsequently transferred to Taconic Farms where they were either maintained on a 75% C57BL/6×25% 129/OlaHsd mixed genetic background or backcrossed for seven generations to C57BL/6. NMUR1 and NMUR2 double knockout (Nmur1&2−/−) mice were generated by crossing N6 Nmur1−/− mice to N7 Nmur2−/− mice. Mice were individually housed in Tecniplast cages in a conventional SPF facility. Mice were initially maintained on a regular chow diet and then early in their life were switched to a high fat diet (D12492: 60% kcal from fat; Research Diets, Inc., New Brunswick, N.J.) with ad libitum access to water in a 12-hour light/12-hour dark cycle.
Ad libitum fed male diet-induced obese mice were weighed and dosed either i.p. or s.c. about 30 minutes prior to the onset of the dark phase of the light cycle and provided with a preweighed aliquot of high fat diet D12492 which was then weighed 2 hours and 18 hours (day 1), 42 hours (day 2), 66 hours (day 3), and 90 hours (day 4) after the onset of the initial dark phase. Mice were weighed at the 18, 42, 66 and 90 hour time points.

rat NMUR1-TTG = biological target: T2, rat NMUR1-TTG (Rattus norvegicus, UniProt Q9JJI5); assay: FLIPR calcium mobilization assay, rat NMUR1-TTG; format: cell-based; parameters: expressed in transfected cells; host or cells: FLP-In CHO or HEK-293 FLP-In cells (pcDNA5); conditions: maximum response at 1 μM compared to hNMU-25; rat NMUR1-TTG
T2 sequence (Q9JJI5 1-425): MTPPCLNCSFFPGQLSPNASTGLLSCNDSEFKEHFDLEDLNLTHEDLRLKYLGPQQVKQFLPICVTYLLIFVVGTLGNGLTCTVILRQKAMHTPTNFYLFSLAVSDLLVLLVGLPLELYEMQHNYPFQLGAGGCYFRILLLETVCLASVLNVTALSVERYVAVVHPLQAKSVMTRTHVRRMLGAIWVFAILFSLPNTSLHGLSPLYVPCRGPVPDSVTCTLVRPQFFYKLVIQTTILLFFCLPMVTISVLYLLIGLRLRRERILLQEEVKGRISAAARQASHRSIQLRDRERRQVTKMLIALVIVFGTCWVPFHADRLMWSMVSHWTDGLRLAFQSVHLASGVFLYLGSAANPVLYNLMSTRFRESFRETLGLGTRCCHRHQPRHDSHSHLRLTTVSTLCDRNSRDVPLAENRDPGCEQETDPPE
From the text: as §1, §2, §3, §4, §5

Compound: CCN1C(=O)CC(SC[C@H](NC(C)=O)C(=O)NCC(=O)N[C@@H](Cc2ccc(O)cc2)C(=O)N[C@@H](Cc2ccccc2)C(=O)N[C@@H](CC(C)C)C(=O)N[C@@H](Cc2ccccc2)C(=O)N[C@@H](CCCNC(=N)N)C(=O)N2CCC[C@H]2C(=O)N[C@@H](CCCNC(=N)N)C(=O)N[C@@H](CC(N)=O)C(N)=O)C1=O (stereo partly drawn) [NMU6] (Ac-C(Succinimide(1-Et,3-yl))GYFLFRPRN-NH2)
- % Activity (mouse NMUR1-ATG; mouse NMUR1-ATG): 100%

Compound: CC(=O)N[C@@H](CSCC(=O)O[C@H]1CC[C@@]2(C)C(=CC[C@H]3[C@@H]4CC[C@H]([C@H](C)CCCC(C)C)[C@@]4(C)CC[C@@H]32)C1)C(=O)NCC(=O)N[C@@H](Cc1ccc(O)cc1)C(=O)N[C@@H](Cc1ccccc1)C(=O)N[C@@H](CC(C)C)C(=O)N[C@@H](Cc1ccccc1)C(=O)N[C@@H](CCCNC(=N)N)C(=O)N1CCC[C@H]1C(=O)N[C@@H](CCCNC(=N)N)C(=O)N[C@@H](CC(N)=O)C(N)=O [NMU11] (Ac-C(X1)GYFLFRPRN-NH2)
- extension of serum half-life by PEGylation (diet-induced obese mice): two days
- % Activity (mouse NMUR1-ATG; mouse NMUR1-ATG): 81.3%

Compound: Ac-FRVDEEFQSPFASQSRGYFLFRPRN-NH2 [NMU2]
- Body weight (BW) change (in grams) {relative to vehicle} Day 1 (diet-induced obese mice; 3 mg/kg): −0.7 grams
- % Food intake (FI) reductions Day 1 (diet-induced obese mice; 3 mg/kg): 25%
- % Activity (mouse NMUR1-ATG; mouse NMUR1-ATG): 100%

Compound: Ac-FRVDEEFQSPFASQSRPYFLFRPRN-NH2 [NMU5]
- Body weight (BW) change (in grams) {relative to vehicle} Day 1 (diet-induced obese mice; 3 mg/kg): −0.5 grams
- % Food intake (FI) reductions Day 1 (diet-induced obese mice; 3 mg/kg): 26%
- % Activity (mouse NMUR1-ATG; mouse NMUR1-ATG): 100%

Compound: GYFLFRPRN-NH2 [NMU3]
- % Activity (mouse NMUR1-ATG; mouse NMUR1-ATG): 100%

Compound: H-FRVDEEFQSPFASQSRGYFLFRPRN-NH2 [hNMU-25, reference compound]
- Body weight (BW) change (in grams) {relative to vehicle} Day 1 (diet-induced obese mice; 10 mg/kg): −0.6 grams
- % Food intake (FI) reductions Day 1 (diet-induced obese mice; 10 mg/kg): 21%
- IC50 (mouse NMUR1-ATG; functional data, mouse R1-ATG): 0.9 nM

Compound: H-FRVDEEFQSPFASQSRPYFLFRPRN-NH2 [NMU4]
- Body weight (BW) change (in grams) {relative to vehicle} Day 1 (diet-induced obese mice; 3 mg/kg): −0.3 grams
- % Food intake (FI) reductions Day 1 (diet-induced obese mice; 3 mg/kg): 12%
- % Activity (mouse NMUR1-ATG; mouse NMUR1-ATG): 100%

Now from value to compound, other results behind:

- % Activity (mouse NMUR1-ATG; mouse NMUR1-ATG): 100%
Compound: CCN1C(=O)CC(SC[C@H](NC(C)=O)C(=O)N[C@@H](Cc2ccccc2)C(=O)N[C@@H](CCCNC(=N)N)C(=O)N[C@H](C(=O)N[C@@H](CC(=O)O)C(=O)N[C@@H](CCC(=O)O)C(=O)N[C@@H](CCC(=O)O)C(=O)N[C@@H](Cc2ccccc2)C(=O)N[C@@H](CCC(N)=O)C(=O)N[C@@H](CO)C(=O)N2CCC[C@H]2C(=O)N[C@@H](Cc2ccccc2)C(=O)N[C@@H](C)C(=O)N[C@@H](CO)C(=O)N[C@@H](CCC(N)=O)C(=O)N[C@@H](CO)C(=O)N[C@@H](CCCNC(=N)N)C(=O)NCC(=O)N[C@@H](Cc2ccc(O)cc2)C(=O)N[C@@H](Cc2ccccc2)C(=O)N[C@@H](CC(C)C)C(=O)N[C@@H](Cc2ccccc2)C(=O)N[C@@H](CCCNC(=N)N)C(=O)N2CCC[C@H]2C(=O)N[C@@H](CCCNC(=N)N)C(=O)N[C@@H](CC(N)=O)C(N)=O)C(C)C)C1=O (stereo partly drawn) [NMU8] (Ac-C(Succinimide(1-Et,3-yl))FRVDEEFQSPFASQSRGYFLFRPRN-NH2)

- % Activity (mouse NMUR1-ATG; mouse NMUR1-ATG): 100%
- % Activity (rat NMUR1-TTG): 107.5%
Compound: CCN1C(=O)CC(SC[C@H](NC(C)=O)C(=O)NCCCOCCOCCOCCCNC(=O)CCC(=O)N[C@@H](Cc2ccccc2)C(=O)N[C@@H](CC(C)C)C(=O)N[C@@H](Cc2ccccc2)C(=O)N[C@@H](CCCNC(=N)N)C(=O)N2CCC[C@H]2C(=O)N[C@@H](CCCNC(=N)N)C(=O)N[C@@H](CC(N)=O)C(N)=O)C1=O (stereo partly drawn) [NMU15, Ac-C1-Ttds-FLFRPRN-CONH2] ({X2-Suc}-FLFRPRN-NH2)

- % Activity (mouse NMUR1-ATG; mouse NMUR1-ATG): 100%
- % Activity (rat NMUR1-TTG): 105.3%
Compound: CCN1C(=O)CC(SC[C@H](NC(C)=O)C(=O)N[C@@H](C)C(=O)N[C@@H](CO)C(=O)N[C@@H](CCC(N)=O)C(=O)N[C@@H](CO)C(=O)N[C@@H](CCCNC(=N)N)C(=O)NCC(=O)N[C@@H](Cc2ccc(O)cc2)C(=O)N[C@@H](Cc2ccccc2)C(=O)N[C@@H](CC(C)C)C(=O)N[C@@H](Cc2ccccc2)C(=O)N[C@@H](CCCNC(=N)N)C(=O)N2CCC[C@H]2C(=O)N[C@@H](CCCNC(=N)N)C(=O)N[C@@H](CC(N)=O)C(N)=O)C1=O (stereo partly drawn) [NMU17] (Ac-C(Succinimide(1-Et,3-yl))ASQSRGYFLFRPRN-NH2)

- EC50 (mouse NMUR1-ATG; FLIPR, mouse NMUR1-ATG): 45.7 nM
- % Activity (mouse NMUR1-ATG; mouse NMUR1-ATG): 95.0%
Compound: Ac-C2FRVDEEFQSPFASQSRGYFLFRPRN-CONH2 [NMU9] ({Ac-C(PEG 40 kDa)}-FRVDEEFQSPFASQSRGYFLFRPRN-NH2) [C2 = Cys(PEG)240 kDa from Nektar (mPEG2-MAL-40 k)]
- extension of serum half-life by PEGylation (diet-induced obese mice): three days
- Body weight (BW) change (in grams) {relative to vehicle} Day 1 (diet-induced obese mice; 10 mg/kg): −2.0 grams
- % Food intake (FI) reductions Day 1 (diet-induced obese mice; 10 mg/kg): 56%
- Body weight (BW) change (in grams) {relative to vehicle} Day 2 (diet-induced obese mice; 10 mg/kg, Day 2): −1.2 grams
- % Food intake (FI) reductions Day 2 (diet-induced obese mice; 10 mg/kg, Day 2, based on vehicle responses): 57%
- Body weight (BW) change (in grams) {relative to vehicle} Day 3 (diet-induced obese mice; 10 mg/kg, Day 3): −0.2 grams
- % Food intake (FI) reductions Day 3 (diet-induced obese mice; 10 mg/kg, Day 3, based on vehicle responses): 18%
